The values that follow are results of earlier work, collected in patent US7799357B2, “In vitro resveratrol-rich callus tissues derived from Vitis thunbergii Sieb. et Zucc and method for producing the same” (Tatung Company, priority 2007, dated 2010).

The subject of the series is Nothobranchius furzeri. The settings on record: short-lived fish Nothobranchius furzeri.

With `Oc1ccc(/C=C/c2cc(O)cc(O)c2)cc1` [Resveratrol, 3,5,4′-trihydroxystilbene], the “extension of maximum lifespan” value (maximum lifespan) is 59%. Moreover, the “extension of median lifespan” value (median lifespan) is listed as 56%.
